Laboratory results published in patent publication US8324188B2, “Combinations of ET-18-O-CH3and anti-cancer agents for the treatment of cancer” (priority 2006, dated 2012).
Several values for one entry are separate records, joined by “and”; a condition that tells them apart may be missing. Identical values can stand only once.

Legend:
U87MG = assay: WST-1 proliferation assay, U87MG; format: cell-based, human; details: Homo sapiens, U-87 MG
Procedure: (§1) AP-121 was prepared as 5 mM stock solution in distilled sterile water, Temozolomide (TMZ) (Haorui Pharma-Chem, Inc., Edison, N.J.) was prepared as 100 mM in sterile filtrated DMSO; Adriamycin (ADR) (Sigma) was prepared as 1 mM in distilled sterile water; Camptothecin (CTP) (Sigma) was prepared as 10 mM solution in 0.1 N NaOH; Tarceva (Proteinkinase, Germany) was prepared as 5 mM solution in sterile DMSO. All compound stocks were kept at −20° C. 2000 cells were plated in each well of 96-well flat bottom plates, and incubated overnight at 37 °C in 5% CO2. The growth of plated cells was measured by adding […] of WST-1 reagent (Roche Applied Sciences, Germany) to 3 control wells and measuring the absorbance at 650 nm and at 450 nm, respectively, with a SpectraMax250 plate reader. […] After this incubation, VVST-1 reagent was added to the wells and OD650-OD450 values were calculated as before. six wells were assayed for each conditions and standard deviation was determined: all experiments were performed at least three times independently. […] Six different concentrations of each drug were used in combinations index measurements and compared to +/− cells, and compared to controls without compound.

U118MG = assay: WST-1 proliferation assay, U118MG; format: cell-based, human; details: Homo sapiens, U-118-MG
Procedure: as §1, with “compound. Each combination was repeated 6 times at 2 different time points (24 and 96 hours), each of the above experiments was repeated 3 times to obtain valid results.” for “compound.”

A172 = assay: WST-1 proliferation assay, A172; format: cell-based, human; details: Homo sapiens, A 172
Procedure: as §1

LN-18 = assay: WST-1 proliferation assay, LN-18; format: cell-based; details: Homo sapiens
Procedure: (§2) 2000 cells were plated in each well of 96-well flat bottom plates, and incubated overnight at 37 °C in 5% CO2. The growth of plated cells was measured by adding […] of WST-1 reagent (Roche Applied Sciences, Germany) to 3 control wells and measuring the absorbance at 650 nm and at 450 nm, respectively, with a SpectraMax250 plate reader. […] After this incubation, VVST-1 reagent was added to the wells and OD650-OD450 values were calculated as before. six wells were assayed for each conditions and standard deviation was determined: all experiments were performed at least three times independently. […] Six different concentrations of each drug were used in combinations index measurements and compared to +/− cells, and compared to controls without compound.

T98G = assay: WST-1 proliferation assay, T98G; format: cell-based; details: Homo sapiens
Procedure: as §1

LN-229 = assay: WST-1 proliferation assay, LN-229; format: cell-based; details: Homo sapiens
Procedure: (§3) 2000 cells were plated in each well of 96-well flat bottom plates, and incubated overnight at 37 °C in 5% CO2. The growth of plated cells was measured by adding […] of WST-1 reagent (Roche Applied Sciences, Germany) to 3 control wells and measuring the absorbance at 650 nm and at 450 nm, respectively, with a SpectraMax250 plate reader. If the OD650-OD450 values were above 0.5, the remainder of the plate was used for incubation with AP-121, other pharmacological agents or solvent control for 96 hours.
(§4) After this incubation, VVST-1 reagent was added to the wells and OD650-OD450 values were calculated as before. six wells were assayed for each conditions and standard deviation was determined: all experiments were performed at least three times independently. After elucidation of individual IC50 values for each compound, the simultaneous combination treatment of AP-121 and the chemotherapeutic agent at their IC50 ratio was performed; combination index (CI) was determined by Calcusyn software package (Biosoft, Ferguson, Mo.). Data were evaluated by calculating the means of the combination index (CI), where a CI of <0.3 indicates a strong synergistic effect, 0.3<CI<0.7 a synergistic effect, 0.7<CI<0.9 moderate synergy, 0.9<CI<1 additive effect and CI>1 antagonistic effect, respectively.
For the AP-121 cell proliferation drug combination measurements, the ED50 was determined for each drug. Six different concentrations of each drug were used in combinations index measurements and compared to +/− cells, and compared to controls without compound. Each combination was repeated 6 times at 2 different time points (24 and 96 hours), each of the above experiments was repeated 3 times to obtain valid results.

[1] = test system: LNCaP androgen-sensitive human prostate adenocarcinoma cells; assay: Apo-ONE Homogenous Caspase-3/7 Assay in LNCaP cells; format: cell-based; details: AD + R1881, no CHEM
Procedure: FIG. 1. Depicts the in vitro effects of 1-O-octadecyl-2-O-methyl-glycero-3-phosphocholine (final concentration 10 μM), (ionizing) radiation (absorbed dose of 5 Gray units; indicated as “RT”), and a combination thereof on programmed cell death (apoptosis) and the survival rate of LNCaP androgen-sensitive human prostate adenocarcinoma cells. Apoptosis was determined using the Apo-ONE™ Homogenous Caspase-317 Assay, Promega, Inc., Madison, Wis., USA according to the manufacturers instructions. The percentage of living cancer cells was estimated by means of trypan blue dye exclusion as described (Freshney, R. I. (1994) Culture of Animal Cells: A Manual of Basic Technique. 3rd Ed. Wiley-Liss. New York. USA). The cells were exposed to radiation six hours after (FIG. 1A), concomitantly with (FIG. 1B), or six hours before administration of 1-O-octadecyl-2-O-methyl-glycero-3-phospho-choline (FIG. 1C). The caspase assay was performed 12 hours after exposure to radiation. The respective data shown represent the average of two independent experiments.
First, the in vitro effects of 1-O-octadecyl-2-O-methyl-glycero-3-phosphocholine, (ionizing) radiation, and a combination thereof on programmed cell death (apoptosis) and the survival rate of LNCaP androgen-sensitive human prostate adenocarcinoma cells were measured. The LNCaP cell line was established from a metastatic lesion of the adenocarcinoma. The cells were treated with a final concentration of 10 μM 1-O-octadecyl-2-O-methyl-glycero-3-phosphocholine and (ionizing) radiation corresponding to an absorbed dose of 5 Gray units.
Apoptosis was determined using the Apo-ONE™ Homogenous Caspase-3/7 Assay, Promega, Inc., Madison, VV1, USA according to the manufacturers instructions. The percentage of living tumor cells was estimated by means of trypan blue dye exclusion as described (Freshney, R. I. (1994) Culture of Animal Cells: A Manual of Basic Technique. 3rd Ed. Wiley-Liss. New York. USA)
The cells were exposed to radiation six hours after (FIG. 1A), concomitantly with (FIG. 1B), or six hours before administration of 1-O-octadecyl-2-O-methyl-glycero-3-phospho-choline (FIG. 1C). The caspase assay was performed 12 hours after exposure to radiation. The respective data shown represent the average of two independent experiments.
(§5) In a further approach, 10 μM 1-O-octadecyl-2-O-methyl-glycero-3-phosphocholine (final concentration; “CHEM”) and (ionizing) radiation (5 Gray units; “RT”) were administered simultaneously to the LNCaP cells but the subsequent incubation period was extended to 24 hours. Apoptosis was measured using the Apo-ONE™ Homogenous Caspase-3/7 Assay as described above and expressed as relative fluorescence units (RFLU). The percentage of apoptotic cells was determined by flow cytometric analysis of annexin V-PE positive-stained and 7-AAD (7-Amino ActinomycinD) negative-stained cells (both purchased from BD Biosciences, San Jose, Calif., USA) according to established standard protocols. The data represent means±SEM from three independent experiments.
(§6) Apoptosis was measured using the Apo-ONE™ Homogenous Caspase-3/7 Assay as described above and expressed as relative fluorescence units (RFLU). The percentage of apoptotic cells was determined via annexin V-PE/7-AAD staining as described above. The caspase-317 assay and annexin staining were performed 22 hours after CHEM treatment.

LNCaP cells = assay: flow cytometric analysis of annexin V-PE positive / 7-AAD negative LNCaP cells; format: cell-based, human; details: AD + R1881, no CHEM
Procedure: as §5
Next, the interaction of 1-O-octadecyl-2-O-methyl-glycero-3-phosphocholine administration (“CHEM”) and androgen deprivation (“AD”) was investigated. LNCaP cells were deprived of androgen for two days by charcoal absorption of serum according to established procedures well known in the art. CHEM was added in a final concentration of 5 μM and 10 μM, respectively.
as §6

A431 = details: mean ± SD from three independent experiments, read-out: ED50 values for induction of apoptosis; cited from earlier work
HeLa = details: mean ± SD from three independent experiments, read-out: ED50 values for induction of apoptosis; cited from earlier work
NCI-H460 (FAS positive) = assay: WST-1 proliferation assay, NCI-H460; format: cell-based, human; details: NCI-H460; single agent, per experiment line
Procedure: as §2, with “DDP and GMZ” for “Six different concentrations of each drug”, “both purchased from Sigma-aldrich Corp., St. Louis, Mo., USA. The following cell lines were used: A549 (FAS negative), NCI-H460 (FAS positive),” for “used in combinations index measurements”, “HCC827 (FAS positive), all obtained from the ATTC, Rockville, Md., USA.” for “compared to +/− cells, and compared to controls without compound.”

[2] = test system: brain tumor cell lines U87MG, A172, LN-18, LN-229, U118MG, and T98G; assay: WST-1 proliferation assay, summaries over the brain tumor cell line panel; format: cell-based, human; details: together with AP-121; all three cell lines (U87MG, A172, U118MG)
Procedure: As a biological test panel, we selected the brain tumor cell lines U87MG, A172, LN-18, LN-229, U118MG, and T98G that have different levels of mutations in p53 and PTEN as well as FAS receptor expression:
as §3, with “If the OD650-OD450 values were above 0.5, the remainder of the plate was used for incubation with AP-121, other pharmacological agents or solvent control for 96 hours.” left out
as §4, with “respectively. […]” for “respectively.”

HCC827 (FAS positive) = assay: WST-1 proliferation assay, HCC827; format: cell-based, human; details: single agent, per experiment line
Procedure: as §2, with “DDP and GMZ” for “Six different concentrations of each drug”, “both purchased from Sigma-aldrich Corp., St. Louis, Mo., USA. The following cell lines were used: A549 (FAS negative), NCI-H460 (FAS positive),” for “used in combinations index measurements”, “HCC827 (FAS positive), all obtained from the ATTC, Rockville, Md., USA.” for “compared to +/− cells, and compared to controls without compound.”

Row | SMILES | IC50 (U87MG) [µM] | IC50 (U118MG) [µM] | IC50 (A172) [µM] | IC50 (LN-18) [µM] | IC50 (T98G) [µM] | IC50 (LN-229) [µM] | also measured
1 | C#Cc1cccc(Nc2ncnc3cc(OCCOC)c(OCCOC)cc23)c1 [Tarceva] | 5.9 | 18.8 | 18.8 | 20 | 14.4 | 3.9 | –
2 | C[C@]1(O)CC[C@H]2[C@@H]3CCC4=CC(=O)CCC4=C3C=C[C@@]21C [R1881, reference compound] | – | – | – | – | – | – | Caspase-3/7 activity (RFLU) [1]: 130 RFLU; % Annexin V-PE pos. cells (LNCaP cells): 7.0%
3 | CCCCCCCCCCCCCCCCCCOP(=O)([O-])OC1CC[N+](C)(C)CC1 [Perifosine] | – | – | – | – | – | – | EC50 (A431): 23.2 ± 2.7 µM; EC50 (HeLa): 9.27 ± 1.8 µM
4 | Nc1ccn([C@@H]2O[C@H](CO)[C@@H](O)C2(F)F)c(=O)n1 [GMZ, gemicitabin, reference compound] | – | – | – | – | – | – | IC50 (NCI-H460 (FAS positive)): 0.003 µM and 0.006 µM
5 | Cn1nnc2c(C(N)=O)ncn2c1=O [TMZ, Temozolomide] | 425 | 382 | 38.3 | 554 | 608 | 278 | effect of combination [2]: strong synergistic effect (a CI of <0.3 indicates a strong synergistic effect)
6 | [NH2][Pt]([NH2])([Cl])[Cl] [DDP, cisplatinum, reference compound] | – | – | – | – | – | – | IC50 (HCC827 (FAS positive)): 3.4 µM and 3.5 µM; IC50 (NCI-H460 (FAS positive)): 1.3 µM
7 | COc1cccc2c1C(=O)c1c(O)c3c(c(O)c1C2=O)C[C@@](O)(C(=O)CO)C[C@@H]3O[C@H]1C[C@H](N)[C@H](O)[C@H](C)O1 [ADR, Adriamycin] | 0.11 | 0.12 | 0.07 | 0.09 | 0.17 | 0.13 | –
8 | CCCCCCCCCCCCCCCCOP(=O)([O-])OCC[N+](C)(C)C [HePC] | – | – | – | – | – | – | EC50 (A431): 17.3 ± 3 µM; EC50 (HeLa): 8.17 ± 0.4 µM
9 | CC[C@@]1(O)C(=O)OCc2c1cc1n(c2=O)Cc2cc3ccccc3nc2-1 [CPT, Camptothecin] | 0.04 | 0.004 | 0.02 | 0.04 | 0.02 | 0.02 | –
